From US20080171783A1, “COMPOSITIONS AND METHODS FOR TREATING HYPERPROLIFERATIVE DISEASE” (Migenix Inc., priority 2006, published 2008)

Columns and labels:
[1] = tested on: NCI-H522; assay: NCI In Vitro Cell Line Screening (SRB); format: cell-based, human; details: NCI-H522, Non-Small Cell Lung Cancer, 48 h
[2] = tested on: HCT-116; assay: NCI In Vitro Cell Line Screening (SRB); format: cell-based, human; details: HCT-116, Colon Cancer, 48 h
[3] = tested on: LOX IMVI; assay: NCI In Vitro Cell Line Screening (SRB); format: cell-based, human; details: Melanoma, 48 h; for GI50 / LC50: Homo sapiens
[4] = tested on: SF-268; assay: NCI In Vitro Cell Line Screening (SRB); format: cell-based, human; details: SF-268, CNS Cancer, 48 h; for GI50 / LC50: Homo sapiens
[5] = tested on: MDA-MB-231/ATCC; assay: NCI In Vitro Cell Line Screening (SRB); format: cell-based, human; details: Breast Cancer, 48 h; for GI50 / CC50: Homo sapiens; for CC50: read-out: LC50 (the source's name)
[6] = tested on: UACC-62; assay: NCI In Vitro Cell Line Screening (SRB); format: cell-based, human; details: UACC-62, Melanoma, 48 h; for GI50 / CC50: Homo sapiens; for CC50: read-out: LC50 (the source's name)
[7] = tested on: MOLT-4; assay: NCI In Vitro Cell Line Screening (SRB); format: cell-based, human; details: MOLT-4, Leukemia, 48 h
[8] = tested on: K-562; assay: NCI In Vitro Cell Line Screening (SRB); format: cell-based; details: K-562, Leukemia, 48 h
[9] = tested on: EKVX; assay: NCI In Vitro Cell Line Screening (SRB); format: cell-based, human; details: Non-Small Cell Lung Cancer, 48 h; for GI50 / LC50: Homo sapiens
[10] = tested on: A549/ATCC; assay: NCI In Vitro Cell Line Screening (SRB); format: cell-based; details: Non-Small Cell Lung Cancer, 48 h; for GI50 / CC50: Homo sapiens; for CC50: read-out: LC50 (the source's name)
[11] = tested on: NCI-H226; assay: NCI In Vitro Cell Line Screening (SRB); format: cell-based, human; details: NCI-H226, Non-Small Cell Lung Cancer, 48 h; for GI50 / LC50 (concentration killing 50% of cells): Homo sapiens
[12] = tested on: M14; assay: NCI In Vitro Cell Line Screening (SRB); format: cell-based, human; details: M14, Melanoma, 48 h; for GI50 / CC50: Homo sapiens; for CC50: read-out: LC50 (the source's name)
[13] = tested on: ACHN; assay: NCI In Vitro Cell Line Screening (SRB); format: cell-based, human; details: Renal Cancer, 48 h; for GI50 / CC50: Homo sapiens; for CC50: read-out: LC50 (the source's name)
[14] = tested on: PC-3; assay: NCI In Vitro Cell Line Screening (SRB); format: cell-based, human; details: PC-3, Prostate Cancer, 48 h; for GI50 / CC50: Homo sapiens; for CC50: read-out: LC50 (the source's name)
[15] = tested on: SW-620; assay: NCI In Vitro Cell Line Screening (SRB); format: cell-based; details: SW-620, Colon Cancer, 48 h; for GI50 / CC50: Homo sapiens; for CC50: read-out: LC50 (the source's name)
[16] = tested on: SK-MEL-5; assay: NCI In Vitro Cell Line Screening (SRB); format: cell-based, human; details: SK-MEL-5, Melanoma, 48 h
[17] = tested on: NCI-H460; assay: NCI In Vitro Cell Line Screening (SRB); format: cell-based, human; details: NCI-H460, Non-Small Cell Lung Cancer, 48 h; for GI50 / CC50: Homo sapiens; for CC50: read-out: LC50 (the source's name)
[18] = tested on: HS 578T; assay: NCI In Vitro Cell Line Screening (SRB); format: cell-based, human; details: Breast Cancer, 48 h; for GI50 / CC50: Homo sapiens; for CC50: read-out: LC50 (the source's name)
[19] = tested on: A498; assay: NCI In Vitro Cell Line Screening (SRB); format: cell-based, human; details: A498, Renal Cancer, 48 h; for GI50 / CC50: Homo sapiens; for CC50: read-out: LC50 (the source's name)
[20] = tested on: 5 Leukemia and 5 Colon Cancer Cell Lines; assay: Cell viability by XTT, cell line panel; format: cell-based; details: for Range (Percentage of Control over the same 10 cell lines): 10 μM, lowest to highest of the ten cell lines; for viability at 10 µM: average of the ten Percentage of Control values, read-out: ARF (Average Response Factor, Average Percentage of Control)
Method in brief: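 Leukemia and colon cancer lines in exponential growth were exposed to compounds for four days at 37 °C/5% CO2, with colon lines allowed overnight adherence beforehand. Viability read by XTT/PMS reduction (4 h) at 450/650 nm; percent of control at 10 μM averaged over ten lines as ARF.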

[21] = Homo sapiens, read-out: LC50 (the source's name)

`CC(C)(C)c1ccc(NC(=O)[C@H](CCCCN)NC(=O)OCC2c3ccccc3-c3ccccc32)cc1` [Compound 105, (S)-[5-AMINO-1-(4-TERT-BUTYL-PHENYLCARBAMOYL)-PENTYL]-CARBAMIC ACID 9H-FLUOREN-9-YLMETHYL ESTER] gave a GI50 ([1]; Homo sapiens) of 2.1 µM, a TGI [1] of 4.43 µM and a TGI [2] of 3.35 µM. It also gave a GI50 ([2]; Homo sapiens) of 1530 nM, an LC50 (concentration killing 50% of cells) ([2]; Homo sapiens) of 7.3 µM and a GI50 [3] of 1810 nM. The LC50 [3] was 6.42 µM, the TGI [3] was 3.41 µM and the GI50 [4] was 17 µM. The LC50 [4] was 58.3 µM, the TGI [4] was 31.5 µM and the TGI [5] was 26.8 µM. For the same compound, the GI50 [5] was 11.1 µM, the CC50 [5] was 64.7 µM and the GI50 [6] was 13.7 µM. It also gave a CC50 [6] of 58.2 µM, a TGI [6] of 28.2 µM and a GI50 ([7]; Homo sapiens) of 1660 nM. The TGI [7] was 3.42 µM, the GI50 ([8]; Homo sapiens, K562) was 1390 nM and the TGI [8] was 3.32 µM. It also gave a GI50 [9] of 21 µM, an LC50 [9] of 90 µM and a TGI [9] of 43.5 µM. It also gave a GI50 [10] of 1770 nM, a CC50 [10] of over 100 µM and a TGI [10] of 23.5 µM. For the same compound, the GI50 [11] was 22.2 µM, the LC50 (concentration killing 50% of cells) [11] was 89.2 µM and the TGI [11] was 44.4 µM. It also gave a GI50 [12] of 1770 nM, a CC50 [12] of 6.55 µM and a TGI [12] of 3.40 µM. It also gave a GI50 [13] of 15.7 µM, a CC50 [13] of 58.5 µM and a TGI [13] of 30.3 µM. For the same compound, the GI50 [14] was 1730 nM, the CC50 [14] was 6.41 µM and the TGI [14] was 3.33 µM. It also gave a GI50 [15] of 2490 nM, a CC50 [15] of 21.7 µM and a TGI [15] of 6.24 µM. It also gave a GI50 ([16]; Homo sapiens) of 1540 nM, a TGI [16] of 2.94 µM and a GI50 [17] of 1130 nM. For the same compound, the CC50 [17] was 5.37 µM, the TGI [17] was 2.47 µM and the TGI [18] was 16.7 µM. For the same compound, the GI50 [18] was 2930 nM, the CC50 [18] was 48.7 µM and the TGI [19] was 0.665 µM. For the same compound, the GI50 [19] was 116 nM, the CC50 [19] was 15.5 µM and the “Range (Percentage of Control over the same 10 cell lines)” value [20] was 0 to 110.8%. For the same compound, the viability at 10 µM [20] was 53.4%.
In the case of `Cc1ccc(NC(=O)[C@@H](CCCCN)NC(=O)Nc2ccc3c(c2)Cc2ccccc2-3)cc1` [Compound 173, (R)-6-AMINO-2-[3-(9H-FLUOREN-2-YL)-UREIDO]-HEXANOIC ACID P-TOLYLAMIDE], the GI50 ([1]; Homo sapiens) is reported as 4.15 µM, the LC50 ([1]; Homo sapiens) is reported as over 100 µM and the TGI [1] is reported as 23.5 µM. It also gave a TGI [2] of 4.40 µM, a GI50 ([2]; Homo sapiens) of 2160 nM and a GI50 [3] of 1400 nM. It also gave an LC50 [3] of 5.2 µM, a TGI [3] of 2.70 µM and a GI50 [4] of 7.37 µM. It also gave an LC50 [4] of 51 µM, a TGI [4] of 21.8 µM and a TGI [5] of 2.57 µM. It also gave a GI50 [5] of 1.26 µM, a CC50 [5] of 5.24 µM and a GI50 [6] of 1.15 µM. It also gave a CC50 [6] of 6.52 µM, a TGI [6] of 2.74 µM and a GI50 ([7]; Homo sapiens) of 1930 nM. The CC50 [7, 21] was 17.5 µM, the TGI [7] was 4.43 µM and the GI50 ([8]; Homo sapiens, K562) was 1670 nM. It also gave a CC50 ([8]; Homo sapiens, K562, read-out: LC50 (the source's name)) of over 100 µM, a GI50 [9] of 1.19 µM and an LC50 [9] of over 100 µM. It also gave a TGI [9] of 46.2 µM, a GI50 [10] of 1550 nM and a CC50 [10] of 7.66 µM. For the same compound, the TGI [10] was 3.45 µM, the GI50 [11] was 1.62 µM and the LC50 (concentration killing 50% of cells) [11] was 45.6 µM. It also gave a TGI [11] of 9.56 µM, a GI50 [12] of 3430 nM and a CC50 [12] of over 100 µM. For the same compound, the TGI [12] was 11.4 µM, the GI50 [13] was 12.2 µM and the CC50 [13] was 54.7 µM. The TGI [13] was 25.8 µM, the GI50 [14] was 2780 nM and the CC50 [14] was 44.5 µM. For the same compound, the TGI [14] was 11.0 µM, the GI50 [15] was 1670 nM and the CC50 [15] was 6.12 µM. For the same compound, the TGI [15] was 3.19 µM, the GI50 ([16]; Homo sapiens) was 1030 nM and the CC50 [16, 21] was 68.3 µM. The TGI [16] was 26.5 µM, the GI50 [17] was 1860 nM and the CC50 [17] was 6.33 µM. It also gave a TGI [17] of 3.43 µM, a TGI [18] of 4.77 µM and a GI50 [18] of 1640 nM. For the same compound, the CC50 [18] was 32.7 µM, the TGI [19] was 8.26 µM and the GI50 [19] was 1990 nM. The CC50 [19] was 37.9 µM, the “Range (Percentage of Control over the same 10 cell lines)” value [20] was 4.3 to 108.6% and the viability at 10 µM [20] was 76.8%.
